From ChEMBL document CHEMBL4619774 (J Med Chem, 2020)

Tests used:
[1] = Dose normalized AUC in C57BL/6 mouse at 3 mg/kg, po by LC-MS/MS analysis; assay type: ADME, organism-based; conditions: in vivo
[2] = molecular target: 3',5'-cyclic-AMP phosphodiesterase 4D (Homo sapiens, UniProt Q08499); assay: Inhibition of PDE4D (unknown origin)
[3] = Dose normalized Cmax in Sprague-Dawley rat at 100 mg/kg, po via gavage by HPLC-MS/MS analysis; assay type: ADME, organism-based; conditions: in vivo
[4] = Volume of distribution at steady state in C57BL/6 mouse at 0.4 mg/kg, iv bolus injection or 3 mg/kg, po by LC-MS/MS analysis; assay type: ADME, organism-based; conditions: in vivo, read-out: Vdss
[5] = Tmax in C57BL/6 mouse at 0.4 mg/kg, iv bolus injection or 3 mg/kg, po by LC-MS/MS analysis; assay type: ADME, organism-based; conditions: in vivo
[6] = AUC (0 to t) in Sprague-Dawley rat at 1 mg/kg, iv administered as bolus dose by HPLC-MS/MS analysis; assay type: ADME, organism-based; conditions: in vivo
[7] = Dose normalized Cmax in Sprague-Dawley rat at 30 mg/kg, po via gavage by HPLC-MS/MS analysis; assay type: ADME, organism-based; conditions: in vivo
[8] = molecular target: T1, Peroxisome proliferator-activated receptor gamma (Homo sapiens) (UniProt P37231); assay: Binding affinity to PPARgamma (unknown origin) at 10 uM
T1 sequence (whole entry): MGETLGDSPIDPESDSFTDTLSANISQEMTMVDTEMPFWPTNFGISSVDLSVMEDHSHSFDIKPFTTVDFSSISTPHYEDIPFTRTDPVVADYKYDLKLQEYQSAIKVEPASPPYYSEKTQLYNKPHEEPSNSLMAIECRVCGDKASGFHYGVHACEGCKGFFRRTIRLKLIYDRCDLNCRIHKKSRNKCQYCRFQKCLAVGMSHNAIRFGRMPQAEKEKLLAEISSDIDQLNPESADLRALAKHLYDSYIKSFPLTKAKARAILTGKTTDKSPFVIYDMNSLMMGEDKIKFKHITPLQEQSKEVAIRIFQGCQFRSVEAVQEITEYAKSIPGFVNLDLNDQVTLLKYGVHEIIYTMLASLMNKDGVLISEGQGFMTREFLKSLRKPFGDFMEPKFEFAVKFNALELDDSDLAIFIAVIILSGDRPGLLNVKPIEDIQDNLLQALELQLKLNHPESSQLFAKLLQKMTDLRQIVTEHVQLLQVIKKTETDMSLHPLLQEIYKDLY

[9] = Dose normalized AUC (0 to t) in Sprague-Dawley rat at 3 mg/kg, po via gavage by HPLC-MS/MS analysis; assay type: ADME, organism-based; conditions: in vivo
Coagulation factor X = Coagulation factor X (Homo sapiens, UniProt P00742); assay type: single protein
Sequence of Coagulation factor X (P00742 41-179 limits assumed): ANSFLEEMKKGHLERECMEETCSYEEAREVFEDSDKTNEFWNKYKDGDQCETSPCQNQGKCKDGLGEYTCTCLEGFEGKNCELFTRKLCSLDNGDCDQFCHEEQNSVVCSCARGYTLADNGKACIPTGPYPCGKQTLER
Sequence of Coagulation factor X (P00742 235-488 limits assumed): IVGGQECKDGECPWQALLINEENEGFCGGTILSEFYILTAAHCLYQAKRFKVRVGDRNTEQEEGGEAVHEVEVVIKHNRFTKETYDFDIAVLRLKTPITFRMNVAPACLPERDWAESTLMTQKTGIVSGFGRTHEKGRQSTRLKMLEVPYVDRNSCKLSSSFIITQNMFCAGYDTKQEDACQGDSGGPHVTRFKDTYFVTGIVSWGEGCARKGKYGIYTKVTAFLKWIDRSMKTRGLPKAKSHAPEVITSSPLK

[10] = molecular target: Urokinase-type plasminogen activator (Homo sapiens, UniProt P00749); assay type: single protein
[11] = Clearance in Sprague-Dawley rat at 1 mg/kg, iv by HPLC-MS/MS analysis; assay type: ADME, organism-based; conditions: in vivo
[12] = molecular target: Prostaglandin G/H synthase 1 (Homo sapiens, UniProt P23219); assay: Inhibition of COX1 (unknown origin)
Sequence of Prostaglandin G/H synthase 1 (P23219 whole entry): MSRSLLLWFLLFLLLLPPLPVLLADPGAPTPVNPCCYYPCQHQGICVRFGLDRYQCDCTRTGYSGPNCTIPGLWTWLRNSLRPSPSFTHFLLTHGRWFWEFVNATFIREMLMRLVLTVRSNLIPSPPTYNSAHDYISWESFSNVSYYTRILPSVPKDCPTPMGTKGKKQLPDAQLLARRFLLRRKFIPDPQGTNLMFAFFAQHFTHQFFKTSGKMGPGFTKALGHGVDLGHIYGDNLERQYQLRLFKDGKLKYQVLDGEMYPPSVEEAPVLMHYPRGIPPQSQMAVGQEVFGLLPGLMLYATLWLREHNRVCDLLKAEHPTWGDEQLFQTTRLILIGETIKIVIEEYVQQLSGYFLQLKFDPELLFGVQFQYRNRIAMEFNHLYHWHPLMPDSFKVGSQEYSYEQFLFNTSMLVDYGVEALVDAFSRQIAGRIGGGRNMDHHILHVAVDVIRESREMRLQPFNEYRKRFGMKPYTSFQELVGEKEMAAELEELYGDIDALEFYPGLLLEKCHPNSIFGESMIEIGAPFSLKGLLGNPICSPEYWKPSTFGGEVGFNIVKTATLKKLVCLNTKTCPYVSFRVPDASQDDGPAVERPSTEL

[13] = Dose normalized Cmax in beagle dog at 75 mg/kg, po via gavage by HPLC-MS/MS analysis; assay type: ADME, organism-based, Canis lupus familiaris; conditions: in vivo
[14] = Clearance in C57BL/6 mouse at 0.4 mg/kg, iv bolus injection or 3 mg/kg, po by LC-MS/MS analysis; assay type: ADME, organism-based; conditions: in vivo
[15] = Dose normalized AUC in C57BL/6 mouse at 100 mg/kg, po by LC-MS/MS analysis; assay type: ADME, organism-based; conditions: in vivo
[16] = Dose normalized AUC (0 to t) in beagle dog at 10 mg/kg, po via gavage by HPLC-MS/MS analysis; assay type: ADME, organism-based, Canis lupus familiaris; conditions: in vivo
[17] = Dose normalized Cmax in beagle dog at 10 mg/kg, po via gavage by HPLC-MS/MS analysis; assay type: ADME, organism-based, Canis lupus familiaris; conditions: in vivo

Sequence of 3',5'-cyclic-AMP phosphodiesterase 4D (Q08499 whole entry): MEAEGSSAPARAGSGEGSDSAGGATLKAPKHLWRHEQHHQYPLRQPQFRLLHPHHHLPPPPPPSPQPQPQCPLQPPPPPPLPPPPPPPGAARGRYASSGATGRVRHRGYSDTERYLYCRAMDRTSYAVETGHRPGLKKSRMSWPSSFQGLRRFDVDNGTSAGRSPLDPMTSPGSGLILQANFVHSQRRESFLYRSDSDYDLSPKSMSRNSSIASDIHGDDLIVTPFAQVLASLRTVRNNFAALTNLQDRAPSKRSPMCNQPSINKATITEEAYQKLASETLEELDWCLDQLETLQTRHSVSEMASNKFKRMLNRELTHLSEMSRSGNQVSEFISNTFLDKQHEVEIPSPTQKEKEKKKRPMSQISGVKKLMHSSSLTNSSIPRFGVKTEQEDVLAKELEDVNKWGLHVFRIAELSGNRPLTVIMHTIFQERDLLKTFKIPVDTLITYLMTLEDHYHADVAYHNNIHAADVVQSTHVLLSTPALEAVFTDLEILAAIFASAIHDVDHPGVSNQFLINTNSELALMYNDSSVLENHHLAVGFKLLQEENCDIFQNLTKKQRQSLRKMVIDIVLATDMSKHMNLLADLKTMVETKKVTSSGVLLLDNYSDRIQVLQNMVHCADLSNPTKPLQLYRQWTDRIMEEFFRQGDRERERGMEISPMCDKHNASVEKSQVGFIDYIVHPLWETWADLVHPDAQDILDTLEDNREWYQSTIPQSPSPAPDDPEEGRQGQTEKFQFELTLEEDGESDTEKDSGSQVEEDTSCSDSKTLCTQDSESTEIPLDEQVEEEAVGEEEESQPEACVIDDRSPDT

AUC/dose [1]: 1297 nM·h
IC50 [2]: 2400 nM
Cmax/dose [3]: 323 nM
Vd [4]: 0.57 L/kg
Tmax [5]: 1 h
AUC(0-t) [6]: 3.33 µM·h
Cmax/dose [7]: 143 nM
Activity [8]: 65%
AUCt/dose [9]: 382 nM·h
IC50 (Coagulation factor X): 1050 nM
IC50 [10]: 170 nM
clearance [11]: 9.4 mL/min/kg
IC50 [12]: 4300 nM
Cmax/dose [13]: 504 nM
clearance [14]: 11 mL/min/kg
AUC/dose [15]: 260215 nM·h
AUCt/dose [16]: 560 nM·h
Cmax/dose [17]: 217 nM
SMILES: CC(C)c1cc(-c2ccc3c(c2)[C@H](N)CO3)cc([C@H](O)Cn2ccc3cccc(C(=O)O)c32)c1
